Earlier results in patent US7718201B2, “Method of inducing liver phase II enzymes” (Access Business Group International LLC, priority 2005, dated 2010).

System: quinone reductase in Hepa1c1c7 cells
Settings: reference values; broccoli dependent on variety, form, extraction conditions

C[S+]([O-])CCCCN=C=S (stereo not shown) [sulforaphane]
Phase II enzyme induction activity (reported): 10^6 U/g
